Reference: article PMC10673369, “Preliminary SAR of Novel Pleuromutilin–Polyamine Conjugates” (Microorganisms, 2023)
Converted amounts (≈) assume the structure as drawn. “And” between values parts separate entries of the source, which are not always exact repeats. Equal values may be shown once. One block for each molecule: values may come before it.

Legend:
[1] = test system: P. aeruginosa PAO1; experiment: MIC, broth dilution, P. aeruginosa PAO1; assay type: cell-based; conditions: Pseudomonas aeruginosa, mean (n = 3)
Protocol: (§1) The susceptibility of bacterial strains S. aureus (ATCC 25923), E. coli (ATCC 25922), and P. aeruginosa (ATCC 27853 or PAO1) to antibiotics and compounds was determined using reported protocols. Additional antimicrobial evaluation against MRSA (ATCC 43300), Klebsiella pneumoniae (ATCC 700603), A. baumannii (ATCC 19606), Candida albicans (ATCC 90028), and Cryptococcus neoformans (ATCC 208821) was undertaken at the Community for Open Antimicrobial Drug Discovery at The University of Queensland (Australia) according to their standard protocols as reported previously. […]
(§2) 2.3. Antimicrobial Assays
(§3) The susceptibility of bacterial strains S. aureus (ATCC 25923), E. coli (ATCC 25922), and P. aeruginosa (ATCC 27853 or PAO1) to antibiotics and compounds was determined in microplates using the standard broth dilution method in accordance with the recommendations of the Comité de l’AntibioGramme de la Société Française de Microbiologie (CA-SFM). Briefly, the minimal inhibitory concentrations (MICs) were determined with an inoculum of 10^5 CFU in 200 µL of Mueller–Hinton broth (MHB) containing two-fold serial dilutions of each drug. The MIC was defined as the lowest […]
(§4) determine all MICs, the measurements were independently repeated in triplicate. Additional antimicrobial evaluation against MRSA (ATCC 43300), Klebsiella pneumoniae (ATCC 700603), A. baumannii (ATCC 19606), Candida albicans (ATCC 90028), and Cryptococcus neoformans (ATCC 208821) was undertaken at the Community for Open Antimicrobial Drug Discovery at The University of Queensland (Australia) according to their standard protocols as reported previously. […]
(§5) For C. neoformans, resazurin was added at 0.006% final concentration to each well and incubated for a further 3 h before MICs were determined by measuring […]
(§6) Colistin and vancomycin were used as positive bacterial inhibitor standards for Gram-negative and Gram-positive bacteria, respectively. Fluconazole was used as a positive fungal inhibitor standard for C. albicans and C. neoformans. The antibiotics were provided in […], with 3 above and 3 below its MIC value, and plated into the first 8 wells of column 23 of the 384-well NBS plates. The quality control (QC) of the assays was determined by the antimicrobial controls and the Z'-factor (using positive and negative controls). Each plate was deemed to fulfil the quality criteria (pass QC) if the Z'- […]
(§7) inhibition at their highest concentration, and no growth inhibition at their lowest concentration.
(§8) 2.4. Determination of the MICs of Antibiotics in the Presence of Synergizing Compounds

[2] = test system: Escherichia coli; parameters: method as in PMID 16589015, PMID 22070694, PMID 22191527; conditions: cited from earlier work
[3] = test system: S. aureus ATCC 25923; experiment: MIC, broth dilution, S. aureus; assay type: cell-based; conditions: Staphylococcus aureus, ATCC25923, mean (n = 3)
Protocol: as §1, §2, §3, §4, §5, §6, §7, §8

[4] = test system: Mycobacterium smegmatis; parameters: method as in PMID 16589015, PMID 22070694, PMID 22191527; conditions: cited from earlier work
[5] = test system: Staphylococcus aureus; parameters: method as in PMID 16589015, PMID 22070694, PMID 22191527; conditions: cited from earlier work
[6] = test system: E. coli ATCC 25922; experiment: MIC, broth dilution, E. coli; assay type: cell-based, Escherichia coli; conditions: Escherichia coli, ATCC25922, mean (n = 3)
Protocol: as §1, §2, §3, §4

[7] = test system: P. aeruginosa ATCC 27853; experiment: MIC of antibiotic alone, P. aeruginosa ATCC 27853; assay type: cell-based
Protocol: as §1, §2, §3, §5

[8] = test system: C. neoformans ATCC 208821; experiment: MIC, CO-ADD antifungal assay, C. neoformans; assay type: cell-based, Cryptococcus neoformans; conditions: Cryptococcus neoformans, ATCC208821, mean (n = 2)
Protocol: as §1, §2
(§9) The susceptibility of bacterial strains S. aureus (ATCC 25923), E. coli (ATCC 25922), and P. […]
(§10) baumannii (ATCC 19606), Candida albicans (ATCC 90028), and Cryptococcus neoformans (ATCC 208821) was undertaken at the Community for Open Antimicrobial Drug Discovery at The University of Queensland (Australia) according to their standard protocols as reported previously. […]
(§11) For the antifungal assay, fungi strains were cultured for 3 days on YPD agar at 30 °C. A yeast suspension of 1 × 106 to 5 × 10^6 CFU/mL was prepared from five colonies. These stock suspensions were diluted with yeast nitrogen base (YNB) (Becton Dickinson, 233520) broth to a final concentration of 2.5 × 10^3 CFU/mL. The compounds were serially diluted 2-fold across the wells of 96-well plates (Corning 3641, non-binding surface), with compound concentrations ranging from 0.015 to 64 µg/mL and final volumes of 50 µL, plated in duplicate. Then, 50 µL of the fungi suspension that was previously prepared in YNB broth to the final concentration of 2.5 × 10^3 CFU/mL was added to each well of the compound-containing plates, giving a final compound concentration range of 0.008 to 32 µg/mL. Plates were covered and incubated at 35 °C for 36 h without shaking. C. albicans MICs were determined by measuring the absorbance at OD530. For C. neoformans, resazurin was added at 0.006% final concentration to each well and incubated for a further 3 h before MICs were determined by measuring […]
as §6, §7, §8

[9] = test system: C. albicans ATCC 90028; experiment: MIC, CO-ADD antifungal assay, C. albicans; assay type: cell-based, Candida albicans; conditions: Candida albicans, ATCC90028, mean (n = 2)
Protocol: as §1, §2, §9, §10, §11, §6, §7, §8

[10] = Cytotoxicity assay, HEK293; assay type: cell-based; conditions: human; HEK293 cells; mean (n = 2); read-out: Cytotoxicity (IC50), concentration of compound at 50% cytotoxicity
Protocol: Cytotoxicity assays were conducted using reported protocols (see Supplementary File). […]
HEK293 cells were counted manually in a Neubauer hemocytometer and plated at a density of 5,000 cells/well into each well of the 384-well plates containing the 25x (2 µL) concentrated compounds [26,27]. The medium used was Dulbecco's modified Eagle’s medium (DMEM), supplemented with 10% fetal bovine serum (FBS). Cells were incubated together with the compounds for 20 h at 37 °C, 5% CO2.
(§12) To measure cytotoxicity, 5 µL (equals 100 µM final) of resazurin was added to each well after incubation and incubated for further 3 h at 37 °C with 5% CO2. After the final incubation, fluorescence intensity […]
reader. CC50 values (concentration at 50% cytotoxicity) were calculated by normalizing the fluorescence readout, with 74 µg/mL tamoxifen as negative control (0%) and normal cell growth as positive control (100%). The concentration-dependent percentage cytotoxicity was fitted to a dose–response function (using Pipeline Pilot) and CC50 values were determined. […]

[11] = test system: MRSA ATCC 43300; experiment: MIC, CO-ADD broth microdilution, MRSA; assay type: cell-based, methicillin-resistant S. aureus; conditions: Staphylococcus aureus, read-out: MIC MRSA
Protocol: as §1, §2, §9
baumannii (ATCC 19606), Candida albicans (ATCC 90028), and Cryptococcus neoformans (ATCC 208821) was undertaken at the Community for Open Antimicrobial Drug Discovery at The University of Queensland (Australia) according to their standard protocols as reported previously. For antimicrobial assays, the tested strains were cultured in either Luria broth (LB) (In Vitro Technologies, USB75852), nutrient broth (NB) (Becton Dickson, 234000), or MHB at 37 °C overnight. A sample of culture was then diluted 40-fold in fresh MHB and incubated at 37 °C for 1.5−2 h. The compounds were serially diluted 2-fold across the wells of 96-well plates (Corning 3641, non-binding surface), with compound concentrations ranging from 0.015 to 64 µg/ mL, and plated in duplicate. The resultant mid-log phase cultures were diluted to the final concentration of 1 × 10^6 CFU/mL; then, 50 µL was added to each well of the compound-containing plates, giving a final compound concentration range of 0.008 to 32 µg/mL and a cell density of 5 × 10^5 CFU/mL. All plates were then covered and incubated at 37 °C for 18 h. Resazurin was added at 0.001% final concentration to each well and incubated for 2 h before MICs […]
as §5, §6, §7, §8

[12] = parameters: method as in PMID 22070694, PMID 31480231; conditions: phase I clinical trials; cited from earlier work
[13] = test system: P. aeruginosa PAO1; experiment: Nitrocefin hydrolysis assay (outer membrane permeabilization); assay type: cell-based; conditions: polymyxin B at 98.3 μM ([…])
Protocol: Nitrocefin assays were conducted using reported protocols (see Supplementary File).
We also examined the ability of 9e to act as membrane disruptor of the Gram-negative bacteria P. aeruginosa PAO1 (Figure 5), using a nitrocefin colorimetric assay. This assay makes use of a chromogenic cephalosporin derivative, which in the presence of an outer membrane disruptor gains entry to the periplasm, where upon the action of β-lactamases leads to substrate hydrolysis with a detectable color change from yellow to red.
Briefly, restoring enhancer concentrations were determined with an inoculum of 5x10^5 CFU in 200 µL of MHB containing two-fold serial dilutions of each derivative in the presence of doxycycline at 4.5 […]
The lowest concentration of the polyamine
These measurements were independently repeated in triplicate.
Outer membrane permeabilization was measured using nitrocefin as a chromogenic substrate of periplasmic β-lactamase. […] Nitrocefin hydrolysis was monitored spectrophotometrically by measuring the increase in absorbance at 490 nm. […]
HEK293 cells were counted manually in a Neubauer hemocytometer and plated at a density of 5,000 cells/well into each well of the 384-well plates containing the 25x (2 µL) concentrated compounds [26,27]. […]
as §12
reader. […] The concentration-dependent percentage cytotoxicity was fitted to a dose–response function (using Pipeline Pilot) and CC50 values were determined.
Human whole blood was washed three times with three volumes of 0.9% NaCl and then resuspended in the same solution to a concentration of 0.5 x 10^8 cells/mL, as determined by the manual cell count in a Neubauer hemocytometer. […] Hemolysis was determined by measuring the supernatant absorbance at […] (OD405). The absorbance was measured using a Tecan M1000 Pro monochromator plate reader. […]

- MIC [1]: 800 µM
- MIC [3]: 3.12 µM
- MIC [6]: 400 µM (≈ 151 µg/mL)
Molecule: C=C[C@]1(C)C[C@@H](OC(=O)CO)[C@]2(C)[C@H](C)CC[C@]3(CCC(=O)[C@H]32)[C@@H](C)[C@@H]1O [Compound 1, pleuromutilin]
- Antibacterial activity against Escherichia coli [2]: no effect
- Antibacterial activity against Mycobacterium smegmatis [4]: moderate activity
- Antibacterial activity against Staphylococcus aureus [5]: bactericidal activity

Molecule: O=C(N[C@H](CO)[C@H](O)c1ccc([N+](=O)[O-])cc1)C(Cl)Cl [chloramphenicol, reference compound]
- MIC [3]: 1.5 to 3 µM

- MIC of antibiotic alone [7]: 90 μM and 40 μg/mL
Molecule: C[C@H]1c2cccc(O)c2C(=O)C2=C(O)[C@]3(O)C(=O)C(C(N)=O)=C(O)[C@@H](N(C)C)[C@@H]3[C@@H](O)[C@@H]21 [doxycycline]

Molecule: OC(Cn1cncn1)(Cn1cncn1)c1ccc(F)cc1F [fluconazole, reference compound]
- MIC [8]: 26 µM
- MIC [9]: 0.4 µM

Molecule: [H]/N=C(/N)N[C@H]1[C@H](O)[C@@H](O)[C@H](O[C@@H]2O[C@@H](C)[C@](O)(C=O)[C@H]2O[C@@H]2O[C@@H](CO)[C@H](O)[C@@H](O)[C@@H]2NC)[C@@H](N/C(N)=N\[H])[C@@H]1O [streptomycin, reference compound]
- MIC [1]: 21.5 µM
- MIC [3]: 21.5 µM
- MIC [6]: 21.5 µM (≈ 12.5 µg/mL)

Molecule: CC/C(=C(\c1ccccc1)c1ccc(OCCN(C)C)cc1)c1ccccc1 [tamoxifen, reference compound]
- IC50 at 20 h [10]: 24 µM

Molecule: CN[C@H](CC(C)C)C(=O)N[C@H]1C(=O)N[C@@H](CC(N)=O)C(=O)N[C@H]2C(=O)N[C@H]3C(=O)N[C@H](C(=O)N[C@H](C(=O)O)c4cc(O)cc(O)c4-c4cc3ccc4O)[C@H](O)c3ccc(c(Cl)c3)Oc3cc2cc(c3O[C@@H]2O[C@H](CO)[C@@H](O)[C@H](O)[C@H]2O[C@H]2C[C@](C)(N)[C@H](O)[C@H](C)O2)Oc2ccc(cc2Cl)[C@H]1O [vancomycin, reference compound]
- MIC [11]: 0.7 µM

Molecule: azamulin [Compound 4]
- Bioavailability [12]: poor bioavailability

Molecule: polymyxin B
- Outer membrane perturbation (nitrocefin hydrolysis) [13]: potent ability to perturb the outer membrane
